Assay: Hydrolysis rate / drug release rate of the compounds (release of JAK inhibitor, HPLC)
Assay type: physicochemical
Settings: % release of JAK inhibitor from sample in acetonitrile/water=7/3 (v/v), 37° C. constant temperature shaker, sampled days 1-4, HPLC
Experimental: Analysis Method for Hydrolysis Rate of Compounds of the Present Invention
1. Preparation of Standard Working Curve Solution
About 10 mg of JAK inhibitors (tofacitinib and baricitinib) reference substances were weighed into a 25 mL volumetric flask, acetonitrile/water=7/3 (v/v) was added to dissolve and dilute to the marked volume, serving as a stock solution. The stock solution was diluted with a suitable dilution factor to obtain linear solutions of each concentration: 0.0002 mg/mL, 0.0004 mg/mL, 0.004 mg/mL, 0.04 mg/mL, and 0.08 mg/mL.
About 10 mg of JAK inhibitors (Oclacitinib, Ruxolitinib, Delgocitinib, and Upadacitinib) reference substances were weighed into a 25 mL volumetric flask, acetonitrile/water=7/3 (v/v) was added to dissolve and dilute to the marked volume, serving as a stock solution. The stock solution was diluted with a suitable dilution factor to obtain linear solutions of each concentration: 0.0002 mg/mL, 0.0004 mg/mL, 0.004 mg/mL, 0.04 mg/mL, and 0.08 mg/mL.
2. Preparation of Sample Solution
About 5 mg of the sample (the compound prepared in the present invention) was weighed into a 20 mL volumetric flask, acetonitrile/water=7/3 (v/v) was added to dissolve and dilute to the marked volume, serving as a stock solution. An appropriate amount of HPLC was loaded as the 0-day sample. The test solution was sealed with a sealing film and placed in a 37° C. constant temperature shaker. The test samples were taken at the same time on days 1, 2, 3, and 4 respectively. the release amount of JAK inhibitor in the sample was calculated according to the sample weight and JAK inhibitor standard curve.
3. Calculation Formula % Release of JAK Inhibitor r=100%×((AJAK Inhibitor−b)/a)/((W/20×M2/M1) wherein • AJAK inhibitor is the peak area of JAK inhibitor in the sample chromatogram • b is the intercept of the standard curve M1 is the molecular weight of the sample a is the slope of the standard curve
W is the sample weight (mg) M2 is the molecular weight of the JAK inhibitor
4. Chromatographic Conditions

In order of rising “Release Rate (%/day)” value:
1. CC(C)Cc1ccc([C@H](C)C(=O)OCn2ccc3c(N(C)[C@H]4CN(C(=O)CC#N)CC[C@H]4C)ncnc32)cc1 [Ex. 3]  0.05 %/day
2. CCc1cccc2c3c([nH]c12)C(CC)(CC(=O)n1ccc2c(-c4cnn(C5(CC#N)CN(S(=O)(=O)CC)C5)c4)ncnc21)OCC3 (centres unmarked) [Ex. 25, 2-(3-(4-(7-(2-(1,8-diethyl-1,3,4,9-tetrahydropyrano [3,4-b]indol-1-yl)acetyl)-7H-pyrrolo [2,3-d]pyrimidin-4-yl)-1H-pyrazol-1-yl)-1-(ethylsulfonyl)azetidin-3-yl) acetonitrile]  0.68 %/day
3. CCc1cccc2c3c([nH]c12)C(CC)(CC(=O)n1ccc2c(N(C)[C@H]4CN(C(=O)CC#N)CC[C@H]4C)ncnc21)OCC3 (stereo partly drawn) [Ex. 14, 3-((3R,4R)-3-((7-(2-(1,8-diethyl-1,3,4,9-tetrahydropyrano[3,4-b]indol-1-yl)acetyl)-7H-pyrrolo[2,3-d]pyrimidin-4-yl) (methyl)amino)-4-methylpiperidin-1-yl)-3-oxopropanenitrile]  0.98 %/day
4. CCC(C(=O)n1ccc2c(-c3cnn(C4(CC#N)CN(S(=O)(=O)CC)C4)c3)ncnc21)c1ccc(N2Cc3ccccc3C2=O)cc1 (centres unmarked) [Ex. 30, 2-2-(1-(Ethylsulfonyl)-3-(4-(7-(2-(4-(1-oxoisoindolin-2-yl)phenyl)butanoyl)-7H-pyrrolo [2,3-d]pyrimidin-4-yl)-1H-pyrazol-1-yl)azetidin-3-yl) acetonitrile]  1.63 %/day
5. CC(=O)Oc1ccccc1C(=O)n1ccc2c(N(C)[C@H]3CN(C(=O)CC#N)CC[C@H]3C)ncnc21 [Ex. 15, 2-(4-((3R, 4R)-1-(2-cyanoacetyl)-4-methylpiperidin-3-yl) (methyl)amino)-7H-pyrrolo[2,3-d] pyrimidine-7-carbonyl)phenyl acetate]  1.86 %/day
6. CCS(=O)(=O)N1CC(CC#N)(n2cc(-c3ncnc4c3ccn4C(=O)C(C)c3ccc(CC4CCCC4=O)cc3)cn2)C1 (centres unmarked) [Ex. 22]  2.75 %/day
7. CCS(=O)(=O)N1CC(CC#N)(n2cc(-c3ncnc4c3ccn4C(=O)[C@@H](C)c3ccc4cc(OC)ccc4c3)cn2)C1 [Ex. 18, (S)-2-(1-(ethylsulfonyl)-3-(4-(7-(2-(6-methoxynaphthalen-2-yl)propanoyl)-7H-pyrrolo [2,3-d]pyrimidin-4-yl)-1H-pyrazol-1-yl)azetidin-3-yl) acetonitrile]  2.97 %/day
8. Cc1cccc(Nc2ccccc2C(=O)n2ccc3c(N(C)[C@H]4CN(C(=O)CC#N)CC[C@H]4C)ncnc32)c1C [Ex. 4, 3-((3R,4R)-3-((7-(2-((2,3-dimethylphenyl)amino)benzoyl)-7H-pyrrolo[2,3-d]pyrimidin-4-yl)(methyl)amino)-4-methylpiperidin-1-yl)-3-oxopropanenitrile]  3.32 %/day
9. CCS(=O)(=O)N1CC(CC#N)(n2cc(-c3ncnc4c3ccn4C(=O)C(C)c3cccc(Oc4ccccc4)c3)cn2)C1 (centres unmarked) [Ex. 21, 2-(1-(Ethylsulfonyl)-3-(4-(7-(2-(3-phenoxyphenyl)propanoyl)-7H-pyrrolo [2,3-d]pyrimidin-4-yl)-1H-pyrazol-1-yl)azetidin-3-yl) acetonitrile]  4.6 %/day
10. CCS(=O)(=O)N1CC(CC#N)(n2cc(-c3ncnc4c3ccn4C(=O)C(C)c3ccc(-c4ccccc4)c(F)c3)cn2)C1 (centres unmarked) [Ex. 20, 2-(1-(ethylsulfonyl)-3-(4-(7-(2-(2-fluoro-[1, 1′-biphenyl]-4-yl)propanoyl)-7H-pyrrolo [2,3-d]pyrimidin-4-yl)-1H-pyrazol-1-yl)azetidin-3-yl) acetonitrile]  5.06 %/day
11. CCS(=O)(=O)N1CC(CC#N)(n2cc(-c3ncnc4c3ccn4C(=O)Cc3ccc(NC(C)=O)cc3)cn2)C1 [Ex. 24, N-(4-(2-(4-(1-(3-(cyanomethyl)-1-(ethylsulfonyl)azetidin-3-yl)-1H-pyrazol-4-yl)-7H-pyrrolo [2,3-d]pyrimidin-7-yl)-2-oxoethyl)phenyl) acetamide]  5.96 %/day
12. CCS(=O)(=O)N1CC(CC#N)(n2cc(-c3ncnc4c3ccn4C(=O)C(C)c3cccc(C(=O)c4ccccc4)c3)cn2)C1 (centres unmarked) [Ex. 19, 2-(3-(4-(7-(2-(3-benzoylphenyl)propanoyl)-7H-pyrrolo [2,3-d]pyrimidin-4-yl)-1H-pyrazol-1-yl)-1-(ethylsulfonyl)azetidin-3-yl) acetonitrile]  6.25 %/day
13. CCS(=O)(=O)N1CC(CC#N)(n2cc(-c3ncnc4c3ccn4C(=O)Cc3c(C)n(C(=O)c4ccc(Cl)cc4)c4ccc(OC)cc34)cn2)C1 [Ex. 23, 2-(3-(4-(7-(2-(1-(4-chlorobenzoyl)-5-methoxy-2-methyl-1H-indol-3-yl)acetyl)-7H-pyrrolo [2,3-d]pyrimidin-4-yl)-1H-pyrazol-1-yl)-1-(ethylsulfonyl)azetidin-3-yl) acetonitrile]  7.63 %/day
14. CC(C)Cc1ccc(C(C)C(=O)n2ccc3c(N(C)[C@H]4CN(C(=O)CC#N)CC[C@H]4C)ncnc32)cc1 (stereo partly drawn) [Ex. 1, 3-((3R,4R)-3-((7-(2-(4-isobutylphenyl)propanoyl)-7H-pyrrolo [2,3-d]pyrimidin-4-yl) (methyl)amino)-4-methylpiperidin-1-yl)-3-oxopropanenitrile]  8.26 %/day
15. CC(C(=O)n1ccc2c(N(C)[C@H]3CN(C(=O)CC#N)CC[C@H]3C)ncnc21)c1ccc(CC2CCCC2=O)cc1 (stereo partly drawn) [Ex. 11, 3-((3R,4R)-4-methyl-3-(methyl (7-(2-(4-((2-oxocyclopentyl)methyl)phenyl)propanoyl)-7H-pyrrolo[2,3-d]pyrimidin-4-yl)amino)piperidin-1-yl)-3-oxopropanenitrile]  9.17 %/day
16. COc1ccc2cc([C@H](C)C(=O)n3ccc4c(N(C)[C@H]5CN(C(=O)CC#N)CC[C@H]5C)ncnc43)ccc2c1 [Ex. 6, 3-((3R, 4R)-3-((7-((S)-2-(6-methoxynaphthalen-2-yl)propanoyl)-7H-pyrrolo[2,3-d]pyrimidin-4-yl) (methyl)amino)-4-methylpiperidin-1-yl)-3-oxopropanenitrile]  9.82 %/day
17. CC(C(=O)n1ccc2c(N(C)[C@H]3CN(C(=O)CC#N)CC[C@H]3C)ncnc21)c1cccc(Oc2ccccc2)c1 (stereo partly drawn) [Ex. 10, 3-((3R,4R)-4-methyl-3-(methyl (7-(2-(3-phenoxyphenyl)propanoyl)-7H-pyrrolo [2,3-d]pyrimidin-4-yl)amino)piperidin-1-yl)-3-oxopropanenitrile]  11.25 %/day
18. CC(=O)Nc1ccc(CC(=O)n2ccc3c(N(C)[C@H]4CN(C(=O)CC#N)CC[C@H]4C)ncnc32)cc1 [Ex. 13, N-(4-(2-(4-(((3R, 4R)-1-(2-cyanoacetyl)-4-methylpiperidin-3-yl) (methyl)amino)-7H-pyrrolo[2,3-d]pyrimidin-7-yl)-2-oxoethyl)phenyl)acetamide]  12.18 %/day
19. C[C@@H]1CCN(C(=O)CC#N)C[C@@H]1N(C)c1ncnc2c1ccn2C(=O)Cc1ccccc1Nc1c(Cl)cccc1Cl [Ex. 9]  13.49 %/day
20. CC(C(=O)n1ccc2c(N(C)[C@H]3CN(C(=O)CC#N)CC[C@H]3C)ncnc21)c1ccc(-c2ccccc2)c(F)c1 (stereo partly drawn) [Ex. 8, 3-((3R, 4R)-3-((7-(2-(2-fluoro-[1, 1′-biphenyl]-4-yl)propanoyl)-7H-pyrrolo[2,3-d]pyrimidin-4-yl)(methyl)amino)-4-methylpiperidin-1-yl)-3-oxopropanenitrile]  14.77 %/day
21. CC(C(=O)n1ccc2c(N(C)[C@H]3CN(C(=O)CC#N)CC[C@H]3C)ncnc21)c1cccc(C(=O)c2ccccc2)c1 (stereo partly drawn) [Ex. 7, 3-((3R,4R)-3-((7-(2-(3-benzoylphenyl)propanoyl)-7H-pyrrolo[2,3-d]pyrimidin-4-yl) (methyl)amino)-4-methylpiperidin-1-yl)-3-oxopropanenitrile]  15.65 %/day
22. CCS(=O)(=O)N1CC(CC#N)(n2cc(-c3ncnc4c3ccn4C(=O)[C@@H](NC(=O)OC(C)(C)C)c3ccccc3)cn2)C1 [Ex. 26, Tert-butyl (S)-(2-(4-(1-(3-(cyanomethyl)-1-(ethylsulfonyl)azetidin-3-yl)-1H-pyrazol-4-yl)-7H-pyrrolo [2,3-d]pyrimidin-7-yl)-2-oxo-1-phenylethyl) carbamate]  36.19 %/day
23. C[C@@H]1CCN(C(=O)CC#N)C[C@@H]1N(C)c1ncnc2c1ccn2C(=O)[C@@H](NC(=O)OC(C)(C)C)c1ccccc1 [Ex. 16, Tert-butyl ((S)-2-(4-(((3R, 4R)-1-(2-cyanoacetyl)-4-methylpiperidin-3-yl) (methyl)amino)-7H-pyrrolo[2,3-d]pyrimidin-7-yl)-2-oxo-1-phenylethyl)carbamate]  39.31 %/day

Source: patent publication US12290519B2, “Anti-inflammatory coupling compound drug, and preparation method therefor and use thereof” (COVAL BIOPHARMA (SHANGHAI) CO., LTD., priority 2021, dated 2025)
